Like-named read-outs stand apart in the source and are kept apart here.
Target: T1, mouse P–gp (mP–gp) (Mus musculus, UniProt P21447)
T1 construct: made in house; host or cells: High-Five insect cells (Invitrogen), recombinant baculovirus; total membrane vesicles
Assay: P–gp ATPase activity (vanadate-sensitive, end point Pi release) in native membranes
Type: biochemical
Settings: for Emax: read-out: V1, maximum activation; for Effect on P–gp ATPase activity: native membranes, Figure 1
Procedure: High-Five insect cells (Invitrogen) were infected with recombinant baculovirus carrying mouse P–gp (mP–gp) gene (Abcb1a). Membrane vesicles were prepared by hypotonic lysis of the insect cells, followed by ultracentrifugation to collect the membrane vesicles, as described in detail in reference. The native membranes obtained were suspended in storage buffer (45 mM Tris-HCl pH 7.5, 45 mM D-mannitol, 1.8 mM EGTA, 0.45% v/v aprotinin, 1.8 mM DTT, 0.9 mM AEBSF, and 10% v/v glycerol), aliquoted, and stored at −80 °C or in liquid nitrogen until use. The concentration of protein in the native membranes was quantified by the Sherman and Weismann method using Amido Black B dye.
The ATPase activity of P–gp in the High-Five insect cell membranes was measured by the end point Pi release assays, as described earlier with minor modifications. Native membranes were diluted in ATPase assay buffer (final concentrations: 41.2 mM Tris-MES pH = 6.8, 50 mM KCl, 5 mM NaN3, 2 mM EGTA, 1.03 mM Ouabain, 2 mM DTT, and 10 mM MgCl2), and the modulators were added from stocks in DMSO (final DMSO 1% v/v). The final concentration of protein was quantified, being ca. 0.1 mg/mL. Four samples were prepared at each modulator concentration, containing ATP at 5 mM, two of which also contained vanadate at 0.3 mM. P–gp specific activity was measured as vanadate-sensitive ATPase activity. The basal rate of ATP hydrolysis was 67 ± 4 nmol Pi mgP^−1 min^−1, with 37 ± 4 nmol Pi mgP^−1 min^−1 being sensitive to vanadate. The results obtained for the effect of the modulators on the ATPase activity in the presence and absence of vanadate are shown in the Supplementary Information (Figure S1).
The results were then analyzed with the formalism derived in this manuscript considering the distribution of the modulator in the distinct environments (aqueous phase, lipid bilayer and P-gp) and several equal and independent binding sites in P-gp’s binding pocket, Equations (3)–(9). The best fit was obtained with nonlinear least-square analysis using Microsoft Excel.
For the correct analysis of the results, the distribution of the amphiphiles in the distinct environments (aqueous media, lipid bilayer, and P–gp) must be considered. In addition, excess ligand should not be assumed. When considering that P–gp has several binding sites, the kinetic scheme that describes P–gp saturation with ligand is given by Equation (5). For details, see, e.g., references. (5) LW↔KPW→LbLLb LLb=KPW→LbLW VLb/VWLW+P↔β1PL1 PL1=β1PLWi LW+P↔βiPLi PLi=βiPLW^i n LW+P↔βnPLn PLn=βnPLW^n
The overall ATPase activity at each ligand concentration is calculated from the concentration of each protein species PLi and the corresponding ATPase activity Vi , (9) V=V0+∑i=1nPLi Vi
This formalism was used to describe the effect of the NBD amphiphiles on P–gp’s ATPase activity, considering a distinct ATPase activity for P–gp with a different number of amphiphile molecules in the binding pocket.

[1] = Equation (9), local concentrations, n = 1 binding sites, read-out: Kd, microscopic dissociation constant
[2] = Equation (9), local concentrations, n = 2 binding sites, read-out: Kd, microscopic dissociation constant
[3] = Equation (9), local concentrations, n = 3 binding sites, read-out: Kd, microscopic dissociation constant
[4] = Equation (9), local concentrations, n = 4 binding sites, read-out: Kd, microscopic dissociation constant
[5] = Equation (9), local concentrations, n = 5 binding sites, read-out: Kd, microscopic dissociation constant
[6] = Equation (9), n = 3, read-out: β1, macroscopic binding constant of the first ligand (converted)
[7] = Equation (9), n = 4, read-out: β1, macroscopic binding constant of the first ligand (converted)
[8] = Equation (9), n = 5, read-out: β1, macroscopic binding constant of the first ligand (converted)
[9] = Equation (S1), total modulator concentration, constraint K1≤K2 for NBD–C8 and NBD–LysoMPE, [75% confidence interval], read-out: K2, dissociation constant for P–gp inhibition
[10] = Equation (S1), only activation for NBD–C4, constraint K1≤K2 for NBD–C8 and NBD–LysoMPE, [75% confidence interval]
[11] = Equation (S1), total modulator concentration, no constraint between K1 and K2, [75% confidence interval], read-out: K1, dissociation constant for P–gp activation
[12] = Equation (S1), total modulator concentration, no constraint between K1 and K2, [75% confidence interval], read-out: K2, dissociation constant for P–gp inhibition
[13] = Equation (S1), constraint K1≤K2 for NBD–C8
[14] = Equation (S1), no constraint between K1 and K2, [75% confidence interval]
[15] = Equation (S1), no constraint between K1 and K2, [75% confidence interval], listed as NBD-C8

T1 sequence (P21447 whole entry): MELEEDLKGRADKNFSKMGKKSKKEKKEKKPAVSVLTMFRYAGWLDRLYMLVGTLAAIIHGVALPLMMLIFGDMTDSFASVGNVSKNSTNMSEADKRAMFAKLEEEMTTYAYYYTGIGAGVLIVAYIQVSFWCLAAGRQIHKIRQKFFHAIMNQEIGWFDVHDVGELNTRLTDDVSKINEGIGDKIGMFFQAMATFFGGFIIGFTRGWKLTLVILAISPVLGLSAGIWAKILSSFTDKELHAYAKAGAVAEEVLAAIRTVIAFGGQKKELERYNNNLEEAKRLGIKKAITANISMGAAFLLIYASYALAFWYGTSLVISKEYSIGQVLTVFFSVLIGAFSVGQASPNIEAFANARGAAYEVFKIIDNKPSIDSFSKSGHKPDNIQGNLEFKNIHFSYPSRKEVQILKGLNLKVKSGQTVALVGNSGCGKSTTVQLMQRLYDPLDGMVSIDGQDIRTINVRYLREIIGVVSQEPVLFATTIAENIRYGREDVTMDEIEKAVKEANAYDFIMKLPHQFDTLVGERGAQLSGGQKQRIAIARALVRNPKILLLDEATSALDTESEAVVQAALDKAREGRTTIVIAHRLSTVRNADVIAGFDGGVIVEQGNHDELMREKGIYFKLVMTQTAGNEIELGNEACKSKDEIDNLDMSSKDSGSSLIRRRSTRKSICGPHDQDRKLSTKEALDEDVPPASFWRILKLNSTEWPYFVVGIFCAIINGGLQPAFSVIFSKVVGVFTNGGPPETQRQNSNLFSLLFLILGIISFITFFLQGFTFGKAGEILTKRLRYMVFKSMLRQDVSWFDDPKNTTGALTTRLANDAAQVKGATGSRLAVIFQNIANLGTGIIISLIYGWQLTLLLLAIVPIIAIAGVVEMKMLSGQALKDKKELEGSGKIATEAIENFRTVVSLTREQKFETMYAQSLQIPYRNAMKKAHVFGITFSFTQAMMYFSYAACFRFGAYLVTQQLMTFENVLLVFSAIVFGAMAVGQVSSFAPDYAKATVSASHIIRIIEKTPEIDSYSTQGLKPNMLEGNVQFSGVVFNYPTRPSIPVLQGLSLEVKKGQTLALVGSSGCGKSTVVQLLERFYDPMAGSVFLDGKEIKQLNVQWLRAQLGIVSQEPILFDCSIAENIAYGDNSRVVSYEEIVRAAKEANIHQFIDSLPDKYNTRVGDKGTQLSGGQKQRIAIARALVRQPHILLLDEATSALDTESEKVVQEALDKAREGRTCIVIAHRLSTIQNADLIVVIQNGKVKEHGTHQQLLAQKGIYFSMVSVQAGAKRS

| Compound | Kd [1] | Kd [2] | Kd [3] | Kd [4] | Kd [5] | V1, ATPase activity of P–gp with 1 amphiphile bound (Equation (9), n = 1) | V1, ATPase activity of P–gp with 1 amphiphile bound (Equation (9), n = 2) | V2, ATPase activity of P–gp with 2 amphiphiles bound (Equation (9), n = 2) | V1, ATPase activity of P–gp with 1 amphiphile bound (Equation (9), n = 3) | V2, ATPase activity of P–gp with 2 amphiphiles bound (Equation (9), n = 3) | V3, ATPase activity of P–gp with 3 amphiphiles bound (Equation (9), n = 3) | Kd [6] | V1, ATPase activity of P–gp with 1 amphiphile bound (Equation (9), n = 4) | V2, ATPase activity of P–gp with 2 amphiphiles bound (Equation (9), n = 4) | V3, ATPase activity of P–gp with 3 amphiphiles bound (Equation (9), n = 4) | V4, ATPase activity of P–gp with 4 amphiphiles bound (Equation (9), n = 4) | Kd [7] | V1, ATPase activity of P–gp with 1 amphiphile bound (Equation (9), n = 5) | V2, ATPase activity of P–gp with 2 amphiphiles bound (Equation (9), n = 5) | V3, ATPase activity of P–gp with 3 amphiphiles bound (Equation (9), n = 5) | further results |
| --- | --- | --- | --- | --- | --- | --- | --- | --- | --- | --- | --- | --- | --- | --- | --- | --- | --- | --- | --- | --- | --- |
| CCCCNc1ccc([N+](=O)[O-])c2nonc12 [NBD–C4] | 75 µM | 18 µM | 11 µM | 7 µM | 9 µM | 703% | 100% | 535% | 109% | 109% | 512% | 3.57 µM | 110% | 110% | 110% | 501% | 1.85 µM | 110% | 110% | 110% | V4, ATPase activity of P–gp with 4 amphiphiles bound (Equation (9), n = 5): 259%; V5, ATPase activity of P–gp with 5 amphiphiles bound (Equation (9), n = 5): 491%; Kd [8]: 1.82 µM; K2, dissociation constant for P–gp inhibition (Equation (S1), total modulator concentration, constraint K1≤K2 for NBD–C8 and NBD–LysoMPE, [75% confidence interval]): outside the concentration range studied; Kd [9]: > 60 µM; Emax [10]: 734%; Effect on P–gp ATPase activity: activation |
| CCCCCCCCCCCCCC(=O)OCC(O)COP(=O)(O)OCCNc1ccc([N+](=O)[O-])c2nonc12 (stereo not shown) [NBD–LysoMPE] | 20 µM | 6 µM | 3 µM | 3 µM | 3 µM | 0% | 122% | 0% | 99% | 146% | 0% | 1.09 µM | 100% | 100% | 129% | 0% | 0.714 µM | 100% | 100% | 116% | V4, ATPase activity of P–gp with 4 amphiphiles bound (Equation (9), n = 5): 97%; V5, ATPase activity of P–gp with 5 amphiphiles bound (Equation (9), n = 5): 0%; Kd [8]: 0.588 µM; Kd [11]: > 5 µM; Kd [12]: ≤ 15 µM; V2, residual activity at infinite modulator concentration [13]: 0%; V1, maximal ATPase activation (Equation (S1), in any case (with or without constraints on K1, K2)): < 126%; V2, residual activity at infinite modulator concentration [14]: 0%; Emax [14]: 102%; Emax [10]: 106%; Effect on P–gp ATPase activity: mostly inhibition |
| CCCCCCCCNc1ccc([N+](=O)[O-])c2nonc12 [NBD–C8] | 3 µM | 11 µM | 4 µM | 4 µM | 6 µM | 286% | 388% | 0% | 112% | 403% | 65% | 1.28 µM | 113% | 260% | 317% | 62% | 1 µM | 122% | 275% | 253% | Kd (Equation (9), n = 2, read-out: β1, macroscopic binding constant of the first ligand (converted)): 5.26 µM; V4, ATPase activity of P–gp with 4 amphiphiles bound (Equation (9), n = 5): 253%; V5, ATPase activity of P–gp with 5 amphiphiles bound (Equation (9), n = 5): 0%; Kd [8]: 1.16 µM; Kd [9]: 29 µM; Kd [11]: 17 µM; Kd [12]: 29 µM; V2, residual activity at infinite modulator concentration [13]: 0%; V1, maximum activation [15]: 494 [380, 3000] %; V2, residual activity at infinite modulator concentration [15]: 0 [0, 103] %; V2, residual activity at infinite modulator concentration (Equation (S1), no constraint between K1 and K2, [75% confidence interval], listed as NBD‐C8): 0%; Emax [14]: 497%; V1, maximum activation [10]: 494 % of the basal ATPase activity; V1, maximum activation (Equation (S1), only activation for NBD–C4, constraint K1≤K2 for NBD–C8 and NBD–LysoMPE, [75% confidence interval], listed as NBD-C8): 494 [380, 598] % of the basal ATPase activity; Emax [10]: 497%; Effect on P–gp ATPase activity: both activation and inhibition |
